Experimental findings from US8426425B2, “Aminopyrimidines useful as inhibitors of protein kinases” (Vertex Pharmaceuticals Incorporated, priority 2006, dated 2013) are described below.

pKi: −log10 of the molar value.

T1 sequence (P49841 whole entry, species assumed, the tested form may be a part): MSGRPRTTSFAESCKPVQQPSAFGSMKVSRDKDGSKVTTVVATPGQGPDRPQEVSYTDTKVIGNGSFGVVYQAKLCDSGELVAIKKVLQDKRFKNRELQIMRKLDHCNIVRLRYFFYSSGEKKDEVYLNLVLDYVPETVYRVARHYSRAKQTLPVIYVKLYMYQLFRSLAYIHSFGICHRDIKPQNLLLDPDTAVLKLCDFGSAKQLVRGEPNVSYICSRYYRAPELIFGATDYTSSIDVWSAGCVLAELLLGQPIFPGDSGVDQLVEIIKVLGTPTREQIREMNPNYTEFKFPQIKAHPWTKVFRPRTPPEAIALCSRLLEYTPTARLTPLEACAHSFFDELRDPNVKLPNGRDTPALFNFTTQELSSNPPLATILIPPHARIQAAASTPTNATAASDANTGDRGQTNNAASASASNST

The test has as its target T1, GSK-3β (AA 1-420) (Homo sapiens, UniProt P49841).
T1 construct: GSK-3β (AA 1-420)
Put plainly: GSK-3 Inhibition Assay (standard coupled enzyme system). Format: biochemical. The following applies: 20 nM GSK-3β, 20 μM ATP, 300 μM peptide, 30° C. The procedure: Compounds of the present invention were screened for their ability to inhibit GSK-3β (AA 1-420) activity using a standard coupled enzyme system (Fox et al., Protein Sci. 1998, 7, 2249). Reactions were carried out in a solution containing 100 mM HEPES (pH 7.5), 10 mM MgCl2, 25 mM NaCl, 300 μM NADH, 1 mM DTT and 1.5% DMSO. Final substrate concentrations in the assay were 20 μM ATP (Sigma Chemicals, St Louis, Mo.) and 300 μM peptide (American Peptide, Sunnyvale, Calif.). Reactions were carried out at 30° C. and 20 nM GSK-3β. Final concentrations of the components of the coupled enzyme system were 2.5 mM phosphoenolpyruvate, 300 μM NADH, 30 μg/ml pyruvate kinase and 10 μg/ml lactate dehydrogenase.
An assay stock buffer solution was prepared containing all of the reagents listed above with the exception of ATP and the test compound of the present invention. The assay stock buffer solution (175 μl) was incubated in a 96 well plate with 5 μl of the test compound of the present invention at final concentrations spanning 0.002 μM to 30 μM at 30° C. for 10 min. Typically, a 12-point titration was conducted by preparing serial dilutions (from 10 mM compound stocks) with DMSO of the test compounds of the present invention in daughter plates. The reaction was initiated by the addition of 20 μl of ATP (final concentration 20 μM). Rates of reaction were obtained using a Molecular Devices Spectramax plate reader (Sunnyvale, Calif.) over 10 min at 30° C. The Ki values were determined from the rate data as a function of inhibitor concentration.
Usually pKi stands for the negative decadic logarithm of the Ki, by convention in mol/L. A low value points to a large Ki. With `Fc1cnc2[nH]nc(Nc3cc(N4CCC4)nc(C4CCCCC4)n3)c2c1` [Compound I-1, N-(6-(azetidin-1-yl)-2-cyclohexylpyrimidin-4-yl)-5-fluoro-1H-pyrazolo[3,4-b]pyridin-3-amine], the pKi was more than 7.30.

`Cc1cc(Nc2cc(N3CCC3)nc(C3CCCCC3)n2)n[nH]1` [Compound I-2] showed a pKi of more than 7.30.

In turn, `Fc1ccc2[nH]nc(Nc3cc(N4CCC4)nc(C4CCCCC4)n3)c2c1` [Compound I-3] had a pKi of 7.00 to 7.30.
